Where a chain is given by its changes, count along the chain named. Blank lines part the entries; values can stand above or below the molecule they belong to.
Key:
ZCCHC4_24-464 = biological target: T1, ZCCHC4_24-464 (Homo sapiens, UniProt Q9H5U6, K55A/E56A/E57A/K167A/K168A); assay: X-ray crystal structure, […] Å; format: binding; settings: cofactor pocket of the MTase domain; no RNA
T1 construct: gene ZCCHC4; core fragment, residues 24-464, five surface mutations for crystallization; His6-SUMO tag cleaved by ULP1; E. coli BL21(DE3) RIL
T1 sequence (Q9H5U6 24-464 K55A/E56A/E57A/K167A/K168A): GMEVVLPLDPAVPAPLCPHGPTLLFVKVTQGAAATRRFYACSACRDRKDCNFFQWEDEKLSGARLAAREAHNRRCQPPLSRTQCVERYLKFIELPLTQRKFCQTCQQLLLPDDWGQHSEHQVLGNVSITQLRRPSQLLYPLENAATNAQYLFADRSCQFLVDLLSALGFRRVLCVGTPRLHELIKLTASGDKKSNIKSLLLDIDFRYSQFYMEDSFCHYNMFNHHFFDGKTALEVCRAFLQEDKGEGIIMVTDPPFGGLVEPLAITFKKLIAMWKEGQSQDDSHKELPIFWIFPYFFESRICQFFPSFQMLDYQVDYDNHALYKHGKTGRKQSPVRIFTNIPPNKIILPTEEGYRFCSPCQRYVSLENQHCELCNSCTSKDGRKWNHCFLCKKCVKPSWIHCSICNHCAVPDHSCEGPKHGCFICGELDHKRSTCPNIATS

ZCCHC4_24-513 [1] = biological target: T2, ZCCHC4_24-513 (Homo sapiens, UniProt Q9H5U6); assay: isothermal titration calorimetry; format: binding
T2 construct: gene ZCCHC4; residues 24-513; His6-SUMO tag cleaved by ULP1; E. coli BL21(DE3) RIL; monomer in solution
T2 sequence (Q9H5U6 24-513): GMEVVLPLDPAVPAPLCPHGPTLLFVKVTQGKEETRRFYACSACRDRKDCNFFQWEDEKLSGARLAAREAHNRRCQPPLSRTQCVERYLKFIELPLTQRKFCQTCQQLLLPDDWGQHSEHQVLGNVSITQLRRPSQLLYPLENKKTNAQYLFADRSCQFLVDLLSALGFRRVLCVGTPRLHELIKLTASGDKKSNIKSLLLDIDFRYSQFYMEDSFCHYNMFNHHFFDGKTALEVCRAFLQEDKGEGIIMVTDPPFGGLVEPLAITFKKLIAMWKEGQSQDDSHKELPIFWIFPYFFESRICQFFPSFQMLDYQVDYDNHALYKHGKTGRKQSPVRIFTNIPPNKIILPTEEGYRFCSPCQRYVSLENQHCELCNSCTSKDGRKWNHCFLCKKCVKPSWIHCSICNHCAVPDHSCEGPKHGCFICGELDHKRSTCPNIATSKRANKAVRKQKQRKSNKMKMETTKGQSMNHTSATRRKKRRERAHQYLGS

ZCCHC4_24-513 [2] = biological target: T3, ZCCHC4_24-513 (Homo sapiens, UniProt Q9H5U6, H343A); assay: isothermal titration calorimetry; format: binding
T3 construct: gene ZCCHC4; residues 24-513; His6-SUMO tag cleaved by ULP1; E. coli BL21(DE3) RIL; monomer in solution
T3 sequence (Q9H5U6 24-513 H343A): T2 sequence (Q9H5U6 24-513) with H320A

ZCCHC4 24-464 WT (core) = biological target: T4, ZCCHC4 24-464 WT (core) (human, UniProt Q9H5U6 24-464); assay: EMSA; EMSA: 20 mM Tris-HCl pH 7.5, 100 mM NaCl, 5% glycerol, 1 mM DTT, 4 C, 1 h; 0.3 uM RNA with 0-1.2 uM protein unless noted; 6% TBE native gel; settings: protein: recombinant; tags: His6-SUMO removed by ULP1; label: none (SYBR Gold stain); stem-loop with tail
T4 sequence: T1 sequence (Q9H5U6 24-464 K55A/E56A/E57A/K167A/K168A) with A32K, A33E, A34E, A144K, A145K

Molecule: Nc1ncnc2c1ncn2[C@@H]1O[C@H](CSCC[C@H](N)C(=O)O)[C@@H](O)[C@H]1O [SAH]
X-ray crystal structure, 3.1 Å (ZCCHC4_24-464): in complex with S-adenosyl-L-homocysteine (SAH)

Kd (ZCCHC4_24-513 [1]): 6.7 µM | Kd (ZCCHC4_24-513 [2]): 1.6 µM
Molecule: C[S+](CC[C@H](N)C(=O)O)C[C@H]1O[C@@H](n2cnc3c(N)ncnc32)[C@H](O)[C@@H]1O (stereo partly shown) [SAM]

B1: 30-mer 28S rRNA (structured_RNA)
RNA: CGGUACACCUGUCAAACGGUAACGCAGGUG
binding result (ZCCHC4 24-464 WT (core)): binds

Reference: PMC6834594, “Structure and regulation of ZCCHC4 in m^6A-methylation of 28S rRNA” (Nature Communications, 2019)
